Laboratory results: ChEMBL document CHEMBL4706764, “PROTAC-Mediated Degradation of Janus Kinase as a Therapeutic Strategy for Cancer and Rheumatoid Arthritis” (ACS Med Chem Lett, 2021)

Target: Protein cereblon/Tyrosine-protein kinase JAK2 (Homo sapiens, UniProt O60674+Q96SW2)
Assay: PROTAC activity at CRBN/JAK2 in human MHHCALL4 cells assessed as protein degradation by immunoblot analysis
Type: cell-based

Sequence of Protein cereblon/Tyrosine-protein kinase JAK2 (O60674 whole entry): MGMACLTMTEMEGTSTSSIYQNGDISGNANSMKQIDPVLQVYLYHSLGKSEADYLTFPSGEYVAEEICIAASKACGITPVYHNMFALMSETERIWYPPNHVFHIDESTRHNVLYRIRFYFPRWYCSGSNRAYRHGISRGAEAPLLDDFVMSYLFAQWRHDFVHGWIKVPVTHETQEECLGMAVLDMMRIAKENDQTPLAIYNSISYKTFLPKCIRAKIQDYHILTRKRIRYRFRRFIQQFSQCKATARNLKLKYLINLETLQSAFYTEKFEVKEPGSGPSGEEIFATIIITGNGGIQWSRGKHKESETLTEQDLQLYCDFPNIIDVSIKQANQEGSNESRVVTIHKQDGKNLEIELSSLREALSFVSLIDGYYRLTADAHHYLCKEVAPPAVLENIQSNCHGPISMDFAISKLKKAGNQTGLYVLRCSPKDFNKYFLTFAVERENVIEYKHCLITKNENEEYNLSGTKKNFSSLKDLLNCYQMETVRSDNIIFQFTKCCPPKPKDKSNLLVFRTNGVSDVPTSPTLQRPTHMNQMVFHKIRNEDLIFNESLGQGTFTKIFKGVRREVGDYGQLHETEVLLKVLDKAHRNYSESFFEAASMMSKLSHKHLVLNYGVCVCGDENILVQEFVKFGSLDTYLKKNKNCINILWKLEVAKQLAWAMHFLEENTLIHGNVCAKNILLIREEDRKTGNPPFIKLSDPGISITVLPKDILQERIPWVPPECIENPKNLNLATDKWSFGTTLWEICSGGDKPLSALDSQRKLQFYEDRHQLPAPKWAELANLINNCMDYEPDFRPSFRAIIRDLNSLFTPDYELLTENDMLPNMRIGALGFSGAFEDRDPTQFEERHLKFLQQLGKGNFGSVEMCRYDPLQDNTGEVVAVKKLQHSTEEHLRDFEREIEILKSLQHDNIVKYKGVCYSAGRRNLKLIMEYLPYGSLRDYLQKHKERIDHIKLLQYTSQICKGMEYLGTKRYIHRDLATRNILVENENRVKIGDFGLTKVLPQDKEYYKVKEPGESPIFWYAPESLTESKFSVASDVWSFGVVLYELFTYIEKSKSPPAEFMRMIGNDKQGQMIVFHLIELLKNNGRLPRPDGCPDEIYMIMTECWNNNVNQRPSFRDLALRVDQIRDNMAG
Sequence of Protein cereblon/Tyrosine-protein kinase JAK2 (Q96SW2 whole entry): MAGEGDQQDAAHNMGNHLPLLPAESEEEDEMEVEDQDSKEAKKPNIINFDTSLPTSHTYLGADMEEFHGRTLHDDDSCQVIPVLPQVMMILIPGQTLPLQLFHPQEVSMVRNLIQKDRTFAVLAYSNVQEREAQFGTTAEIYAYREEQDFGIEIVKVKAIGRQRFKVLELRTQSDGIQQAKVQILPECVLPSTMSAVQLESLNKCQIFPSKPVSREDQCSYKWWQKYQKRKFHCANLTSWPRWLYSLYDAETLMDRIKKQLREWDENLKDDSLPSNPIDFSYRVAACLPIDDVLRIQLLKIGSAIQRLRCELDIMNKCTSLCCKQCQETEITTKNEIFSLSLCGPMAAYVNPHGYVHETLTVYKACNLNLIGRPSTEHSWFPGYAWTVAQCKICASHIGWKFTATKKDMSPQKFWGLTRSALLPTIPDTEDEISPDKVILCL

EC50 [nM] | Compound
0.2 | CCCn1cc(-c2nc(Nc3ccc(C(=O)NCCCCNc4cccc5c4C(=O)N(C4CCC(=O)NC4=O)C5=O)cc3)nc3[nH]ccc23)cn1 (stereo not drawn)
0.5 | CCCn1cc(-c2nc(Nc3ccc(C(=O)NCCCNc4cccc5c4C(=O)N(C4CCC(=O)NC4=O)C5=O)cc3)nc3[nH]ccc23)cn1 (stereo not drawn)
1100 | CCCn1cc(-c2nc(Nc3ccc(C(=O)NCCOCCOCCOCCOCCOCCNc4cccc5c4C(=O)N(C4CCC(=O)NC4=O)C5=O)cc3)nc3[nH]ccc23)cn1 (stereo not drawn)
0.5 | CCCn1cc(-c2nc(Nc3ccc(C(=O)NCCCCCNc4cccc5c4CN(C4CCC(=O)NC4=O)C5=O)cc3)nc3[nH]ccc23)cn1 (stereo not drawn)
2300 | CCCn1cc(-c2nc(Nc3ccc(C(=O)NCCOCCOCCOCCOCCNc4cccc5c4C(=O)N(C4CCC(=O)NC4=O)C5=O)cc3)nc3[nH]ccc23)cn1 (stereo not drawn)
3.9 | N#CC[C@H](C1CCCC1)n1cc(-c2nc(Nc3ccc(C(=O)NCCCCNc4cccc5c4C(=O)N(C4CCC(=O)NC4=O)C5=O)cc3)nc3[nH]ccc23)cn1 (stereo partly drawn)
720 | CCCn1cc(-c2nc(Nc3ccc(C(=O)NCCOCCOCCOCCOCCOCCOCCNc4cccc5c4C(=O)N(C4CCC(=O)NC4=O)C5=O)cc3)nc3[nH]ccc23)cn1 (stereo not drawn)
0.9 | CCCn1cc(-c2nc(Nc3ccc(C(=O)NCCCCCNc4cccc5c4C(=O)N(C4CCC(=O)NC4=O)C5=O)cc3)nc3[nH]ccc23)cn1 (stereo not drawn)
